Key:
Format in all cases: in vivo, human
LDL cholesterol = experiment: Clinical trial: serum LDL-cholesterol (enzymatic and immunologic assays); conditions: patient serum
Source text: (§1) A group of […] patients were selected for therapy to alter lipid metabolism relative to a control group of 20 ‘matched’patients who were not treated (Patient Control Group).
(§2) The therapy group comprised 23 male and 7 female patients with an average age of 55±1.1 years. The patient control group was comprised of 20 patients with IHD, of which 15 were male and 5 were female with an average age of 53±1.2 years. Each patient gave written consent for his/her participation in the trial.
(§3) All patients had angina of II-III class of Canadian Cardiological Society classification.
(§4) Apart from the degree of generalization or severity of atherosclerosis, all groups were matched not only in age, gender and risk factors but also in medication, nitrates, β-blockers, angiotensin-converting enzyme inhibitors etc.
(§5) Each therapy was administered for 8 weeks. The blood of the patients of all four groups was tested every two weeks.
(§6) The level of LDL was estimated in two independent parameters: LDL-cholesterol measured by combination of enzymatic and immunologic assays, and Apo-B measured by immuno-turbometric assay. These assays were performed using commercially available kits which include goat anti-human apo-B polyclonals (LDL-Direct™, Randox Labs Ltd UK, EZ LDL™ Cat No-358-A, Sigma UK).

ApoA = experiment: Clinical trial: serum ApoA of IHD patients under therapy; conditions: patient serum
Source text: as §1, §2, §3, §4, §5

Triglycerides = experiment: Clinical trial: serum triglycerides of IHD patients under therapy; conditions: patient serum
Source text: as §1, §2, §3, §4, §5

Total cholesterol = experiment: Clinical trial: serum total cholesterol of IHD patients under therapy; conditions: patient serum; for cholesterol lowering effect (in words): therapy administered for 8 weeks
Source text: as §1, §2
(§7) All patients had angina of II-III class of Canadian Cardiological Society classification. […] IHD diagnosis for the other 15 patients with a recent history of unstable angina in the first group and 10 in the patient control group was confirmed by coronary angiography, which detected 70% or more of arterial stenosis.
as §4, §5

ApoB = experiment: Clinical trial: serum Apo-B (immuno-turbometric assay); conditions: patient serum
Source text: as §1, §2, §7, §4, §5, §6

In the case of `CC[C@H]1OC(=O)[C@H](C)[C@@H](O[C@H]2C[C@@](C)(OC)[C@@H](O)[C@H](C)O2)[C@H](C)[C@@H](O[C@@H]2O[C@H](C)C[C@H](N(C)C)[C@H]2O)[C@](C)(O)C[C@@H](C)CN(C)[C@H](C)[C@@H](O)[C@]1(C)O` [Group A, azithromycin], the LDL cholesterol (LDL cholesterol; 1 month after treatment) is reported as 44 mg/dL, the “LDL cholesterol (% of before-treatment value)” value (LDL cholesterol; 1 month after treatment) is reported as 129% and the LDL cholesterol (LDL cholesterol; 2 months after treatment) is reported as 41 mg/dL. The “LDL cholesterol (% of before-treatment value)” value (LDL cholesterol; 2 months after treatment) was 121%, the LDL cholesterol (LDL cholesterol; 3 months after treatment) was 40 mg/dL and the “LDL cholesterol (% of before-treatment value)” value (LDL cholesterol; 3 months after treatment) was 118%. The LDL cholesterol (LDL cholesterol; Treatment 4 weeks) was 37 mg/dL, the “LDL cholesterol (% of before-treatment value)” value (LDL cholesterol; Treatment 4 weeks) was 109% and the LDL cholesterol (LDL cholesterol; Treatment 6 weeks) was 38 mg/dL. For the same molecule, the “LDL cholesterol (% of before-treatment value)” value (LDL cholesterol; Treatment 6 weeks) was 112%, the LDL cholesterol (LDL cholesterol; Treatment 8 weeks) was 39 mg/dL and the “LDL cholesterol (% of before-treatment value)” value (LDL cholesterol; Treatment 8 weeks) was 115%. For the same molecule, the ApoA (ApoA; 1 month after treatment) was 145 mg/dL, the “ApoA (% of before-treatment value)” value (ApoA; 1 month after treatment) was 90% and the ApoA (ApoA; 2 months after treatment) was 162 mg/dL. The “ApoA (% of before-treatment value)” value (ApoA; 2 months after treatment) was 101%, the ApoA (ApoA; 3 months after treatment) was 161 mg/dL and the “ApoA (% of before-treatment value)” value (ApoA; 3 months after treatment) was 100%. For the same molecule, the ApoA (ApoA; Treatment 4 weeks) was 142 mg/dL, the “ApoA (% of before-treatment value)” value (ApoA; Treatment 4 weeks) was 88% and the ApoA (ApoA; Treatment 6 weeks) was 143 mg/dL. The “ApoA (% of before-treatment value)” value (ApoA; Treatment 6 weeks) was 89%, the ApoA (ApoA; Treatment 8 weeks) was 141 mg/dL and the “ApoA (% of before-treatment value)” value (ApoA; Treatment 8 weeks) was 88%. For the same molecule, the Triglycerides (Triglycerides; 1 month after treatment) was 106 mg/dL, the “Triglycerides (% of before-treatment value)” value (Triglycerides; 1 month after treatment) was 91% and the Triglycerides (Triglycerides; 2 months after treatment) was 118 mg/dL. For the same molecule, the “Triglycerides (% of before-treatment value)” value (Triglycerides; 2 months after treatment) was 101%, the Triglycerides (Triglycerides; 3 months after treatment) was 109 mg/dL and the “Triglycerides (% of before-treatment value)” value (Triglycerides; 3 months after treatment) was 93%. For the same molecule, the Triglycerides (Triglycerides; Treatment 4 weeks) was 112 mg/dL, the “Triglycerides (% of before-treatment value)” value (Triglycerides; Treatment 4 weeks) was 96% and the Triglycerides (Triglycerides; Treatment 6 weeks) was 101 mg/dL. For the same molecule, the “Triglycerides (% of before-treatment value)” value (Triglycerides; Treatment 6 weeks) was 86%, the Triglycerides (Triglycerides; Treatment 8 weeks) was 99 mg/dL and the “Triglycerides (% of before-treatment value)” value (Triglycerides; Treatment 8 weeks) was 85%. The Total cholesterol (Total cholesterol; 1 month after treatment) was 197 mg/dL, the “Total cholesterol (% of before-treatment value)” value (Total cholesterol; 1 month after treatment) was 96% and the Total cholesterol (Total cholesterol; 2 months after treatment) was 196 mg/dL. For the same molecule, the “Total cholesterol (% of before-treatment value)” value (Total cholesterol; 2 months after treatment) was 96%, the Total cholesterol (Total cholesterol; 3 months after treatment) was 198 mg/dL and the “Total cholesterol (% of before-treatment value)” value (Total cholesterol; 3 months after treatment) was 97%. The Total cholesterol (Total cholesterol; Treatment 4 weeks) was 186 mg/dL, the “Total cholesterol (% of before-treatment value)” value (Total cholesterol; Treatment 4 weeks) was 91% and the Total cholesterol (Total cholesterol; Treatment 6 weeks) was 190 mg/dL. The “Total cholesterol (% of before-treatment value)” value (Total cholesterol; Treatment 6 weeks) was 93%, the Total cholesterol (Total cholesterol; Treatment 8 weeks) was 191 mg/dL and the “Total cholesterol (% of before-treatment value)” value (Total cholesterol; Treatment 8 weeks) was 93%. The “cholesterol lowering effect (in words)” value (Total cholesterol) was “no cholesterol lowering effect”, the ApoB (ApoB; 1 month after treatment) was 115 mg/dL and the “ApoB (% of before-treatment value)” value (ApoB; 1 month after treatment) was 92%. The ApoB (ApoB; 2 months after treatment) was 133 mg/dL, the “ApoB (% of before-treatment value)” value (ApoB; 2 months after treatment) was 106% and the ApoB (ApoB; 3 months after treatment) was 131 mg/dL. For the same molecule, the “ApoB (% of before-treatment value)” value (ApoB; 3 months after treatment) was 105%, the ApoB (ApoB; Treatment 4 weeks) was 109 mg/dL and the “ApoB (% of before-treatment value)” value (ApoB; Treatment 4 weeks) was 87%. For the same molecule, the ApoB (ApoB; Treatment 6 weeks) was 110 mg/dL, the “ApoB (% of before-treatment value)” value (ApoB; Treatment 6 weeks) was 88% and the ApoB (ApoB; Treatment 8 weeks) was 113 mg/dL. The “ApoB (% of before-treatment value)” value (ApoB; Treatment 8 weeks) was 90%.
For `CC(=O)Oc1ccccc1C(=O)O` [Group D, acetylsalicylic acid], the LDL cholesterol (LDL cholesterol; 1 month after treatment) was 44 mg/dL, the LDL cholesterol (LDL cholesterol; 2 months after treatment) was 38 mg/dL and the “LDL cholesterol (% of before-treatment value)” value (LDL cholesterol; 2 months after treatment) was 103%. For the same molecule, the LDL cholesterol (LDL cholesterol; 3 months after treatment) was 43 mg/dL, the LDL cholesterol (LDL cholesterol; Treatment 2 weeks) was 41 mg/dL and the LDL cholesterol (LDL cholesterol; Treatment 4 weeks) was 41 mg/dL. The ApoA (ApoA; 1 month after treatment) was 184 mg/dL, the ApoA (ApoA; 2 months after treatment) was 166 mg/dL and the “ApoA (% of before-treatment value)” value (ApoA; 2 months after treatment) was 106%. For the same molecule, the ApoA (ApoA; 3 months after treatment) was 179 mg/dL, the ApoA (ApoA; Treatment 2 weeks) was 157 mg/dL and the “ApoA (% of before-treatment value)” value (ApoA; Treatment 2 weeks) was 99%. For the same molecule, the ApoA (ApoA; Treatment 4 weeks) was 151 mg/dL, the “ApoA (% of before-treatment value)” value (ApoA; Treatment 4 weeks) was 96% and the Triglycerides (Triglycerides; 1 month after treatment) was 146 mg/dL. The “Triglycerides (% of before-treatment value)” value (Triglycerides; 1 month after treatment) was 126%, the Triglycerides (Triglycerides; 2 months after treatment) was 128 mg/dL and the Triglycerides (Triglycerides; 3 months after treatment) was 134 mg/dL. For the same molecule, the Triglycerides (Triglycerides; Treatment 2 weeks) was 152 mg/dL, the “Triglycerides (% of before-treatment value)” value (Triglycerides; Treatment 2 weeks) was 131% and the Triglycerides (Triglycerides; Treatment 4 weeks) was 111 mg/dL. For the same molecule, the “Triglycerides (% of before-treatment value)” value (Triglycerides; Treatment 4 weeks) was 96%, the Total cholesterol (Total cholesterol; 1 month after treatment) was 221 mg/dL and the “Total cholesterol (% of before-treatment value)” value (Total cholesterol; 1 month after treatment) was 87%. For the same molecule, the Total cholesterol (Total cholesterol; 2 months after treatment) was 223 mg/dL, the “Total cholesterol (% of before-treatment value)” value (Total cholesterol; 2 months after treatment) was 88% and the Total cholesterol (Total cholesterol; 3 months after treatment) was 234 mg/dL. For the same molecule, the “Total cholesterol (% of before-treatment value)” value (Total cholesterol; 3 months after treatment) was 92%, the Total cholesterol (Total cholesterol; Treatment 2 weeks) was 233 mg/dL and the “Total cholesterol (% of before-treatment value)” value (Total cholesterol; Treatment 2 weeks) was 92%. For the same molecule, the Total cholesterol (Total cholesterol; Treatment 4 weeks) was 210 mg/dL, the “Total cholesterol (% of before-treatment value)” value (Total cholesterol; Treatment 4 weeks) was 83% and the “cholesterol lowering effect (in words)” value (Total cholesterol) was “no cholesterol lowering effect”. For the same molecule, the ApoB (ApoB; 1 month after treatment) was 131 mg/dL, the “ApoB (% of before-treatment value)” value (ApoB; 1 month after treatment) was 106% and the ApoB (ApoB; 2 months after treatment) was 142 mg/dL. The “ApoB (% of before-treatment value)” value (ApoB; 2 months after treatment) was 114%, the ApoB (ApoB; 3 months after treatment) was 111 mg/dL and the “ApoB (% of before-treatment value)” value (ApoB; 3 months after treatment) was 90%. For the same molecule, the ApoB (ApoB; Treatment 2 weeks) was 137 mg/dL, the “ApoB (% of before-treatment value)” value (ApoB; Treatment 2 weeks) was 110% and the ApoB (ApoB; Treatment 4 weeks) was 113 mg/dL. For the same molecule, the “ApoB (% of before-treatment value)” value (ApoB; Treatment 4 weeks) was 91%.

— patent US20070072814A1, “Method and means of modulating lipid metabolism” (priority 2003, published 2007)
